Measured values taken from ChEMBL document CHEMBL1795286, “A concise synthesis and antimicrobial activities of 3-polyamino-23,24-bisnorcholanes as steroid-polyamine conjugates” (2011).

Columns and labels:
Salmonella typhimurium [1] = assay: Antimicrobial activity against Salmonella typhimurium ATCC 13311 after 18 hrs by twofold agar dilution method; type: functional, Salmonella enterica subsp. enterica serovar Typhimurium; settings: Salmonella enterica, ATCC 13311, 18 h
Enterococcus faecalis = assay: Antimicrobial activity against Enterococcus faecalis ATCC 29212 after 18 hrs by twofold agar dilution method; type: functional; settings: ATCC 29212, 18 h
Escherichia coli [2] = assay: Antimicrobial activity against Escherichia coli ATCC 10536 after 18 hrs by twofold agar dilution method; type: functional; settings: ATCC 10536, 18 h
Bacillus cereus = assay: Antimicrobial activity against Bacillus cereus ATCC 27348 after 18 hrs by twofold agar dilution method; type: functional; settings: ATCC 27348, 18 h
Citrobacter koseri = assay: Antimicrobial activity against Citrobacter diversus 2046 after 18 hrs by twofold agar dilution method; type: functional; settings: Citrobacter koseri, 2046, 18 h
Moraxella catarrhalis [3] = assay: Antimicrobial activity against Moraxella catarrhalis 25240 after 18 hrs by twofold agar dilution method; type: functional; settings: Moraxella catarrhalis, 25240, 18 h
Klebsiella aerogenes = assay: Antimicrobial activity against Klebsiella aerogenes harboring beta-lactamase SHV-1 1976E mutant after 18 hrs by twofold agar dilution method; type: functional
Staphylococcus aureus [4] = assay: Antimicrobial activity against Staphylococcus aureus 77 after 18 hrs by twofold agar dilution method; type: functional; settings: Staphylococcus aureus, 77, 18 h; read-out: MIC
Klebsiella pneumoniae = assay: Antimicrobial activity against Klebsiella pneumoniae 2011E after 18 hrs by twofold agar dilution method; type: functional
Staphylococcus aureus [5] = assay: Antimicrobial activity against Staphylococcus aureus giorgio after 18 hrs by twofold agar dilution method; type: functional
[6] = tested on: Staphylococcus epidermidis; assay: Antimicrobial activity against Staphylococcus epidermidis 887E after 18 hrs by twofold agar dilution method; type: functional; settings: read-out: MIC
Escherichia coli [7] = assay: Antimicrobial activity against Escherichia coli ATCC 25922 after 18 hrs by twofold agar dilution method; type: functional; settings: ATCC 25922, 18 h
Micrococcus luteus = assay: Antimicrobial activity against Micrococcus luteus ATCC 9341 after 18 hrs by twofold agar dilution method; type: functional; settings: ATCC 9341, 18 h, read-out: MIC
Escherichia coli [8] = assay: Antimicrobial activity against Escherichia coli 851E after 18 hrs by twofold agar dilution method; type: functional
Morganella morganii = assay: Antimicrobial activity against Morganella morganii 1375E after 18 hrs by twofold agar dilution method; type: functional
Serratia marcescens [9] = assay: Antimicrobial activity against Serratia marcescens 1826E after 18 hrs by twofold agar dilution method; type: functional
Proteus vulgaris = assay: Antimicrobial activity against Proteus vulgaris 6059 after 18 hrs by twofold agar dilution method; type: functional; settings: Proteus vulgaris, 6059, 18 h
Serratia marcescens [10] = assay: Antimicrobial activity against Serratia marcescens ATCC 27117 after 18 hrs by twofold agar dilution method; type: functional; settings: ATCC 27117, 18 h
Bacillus licheniformis = assay: Antimicrobial activity against Bacillus licheniformis EMR after 18 hrs by twofold agar dilution method; type: functional
Staphylococcus aureus [11] = assay: Antimicrobial activity against Staphylococcus aureus 241 after 18 hrs by twofold agar dilution method; type: functional; settings: Staphylococcus aureus, 241, 18 h; read-out: MIC
Staphylococcus aureus [12] = assay: Antimicrobial activity against Staphylococcus aureus ATCC 25923 after 18 hrs by twofold agar dilution method; type: functional; settings: ATCC 25923, 18 h, read-out: MIC
Bacillus subtilis = assay: Antimicrobial activity against Bacillus subtilis ATCC 6633 after 18 hrs by twofold agar dilution method; type: functional; settings: ATCC 6633, 18 h
Enterobacter cloacae [13] = assay: Antimicrobial activity against Enterobacter cloacae ATCC 27508 after 18 hrs by twofold agar dilution method; type: functional; settings: ATCC 27508, 18 h
Salmonella typhimurium [14] = assay: Antimicrobial activity against Salmonella Typhimurium ATCC 14028 after 18 hrs by two-fold agar dilution method; type: functional, Salmonella enterica subsp. enterica serovar Typhimurium; settings: Salmonella enterica, ATCC 14028, 18 h
Escherichia coli [15] = assay: Antimicrobial activity against Escherichia coli 3190Y after 18 hrs by twofold agar dilution method; type: functional
Pseudomonas aeruginosa = assay: Antimicrobial activity against Pseudomonas aeruginosa 6065Y after 18 hrs by twofold agar dilution method; type: functional
Moraxella catarrhalis [16] = assay: Antimicrobial activity against Moraxella catarrhalis C2431 after 18 hrs by twofold agar dilution method; type: functional; settings: C2431, 18 h
Enterobacter cloacae [17] = assay: Antimicrobial activity against Enterobacter cloacae P99 after 18 hrs by twofold agar dilution method; type: functional; settings: P99, 18 h
Staphylococcus aureus [18] = assay: Antimicrobial activity against Staphylococcus aureus ATCC 6538P after 18 hrs by twofold agar dilution method; type: functional
Citrobacter freundii = assay: Antimicrobial activity against Citrobacter freundii 8090 after 18 hrs by twofold agar dilution method; type: functional; settings: Citrobacter freundii, 8090, 18 h
[19] = tested on: Acinetobacter calcoaceticus; assay: Antimicrobial activity against Acinetobacter calcoaceticus ATCC 15473 after 18 hrs by twofold agar dilution method; type: functional; settings: ATCC 15473, 18 h

Compound | MIC (Salmonella typhimurium [1]) | MIC (Citrobacter koseri) | MIC (Klebsiella aerogenes) | MIC (Staphylococcus aureus [4]) | MIC (Klebsiella pneumoniae) | MIC (Staphylococcus aureus [5]) | MIC [6] | MIC (Micrococcus luteus) | MIC (Escherichia coli [8]) | MIC (Morganella morganii) | MIC (Serratia marcescens [9]) | MIC (Proteus vulgaris) | MIC (Serratia marcescens [10]) | MIC (Staphylococcus aureus [11]) | MIC (Staphylococcus aureus [12]) | MIC (Bacillus subtilis) | MIC (Enterobacter cloacae [13]) | MIC (Salmonella typhimurium [14]) | MIC (Pseudomonas aeruginosa) | MIC (Enterobacter cloacae [17]) | other results
C[C@H](CO)[C@H]1CC[C@H]2[C@@H]3CC[C@H]4C[C@H](NCCCNCCCCN)CC[C@]4(C)[C@H]3CC[C@]12C.Cl.Cl.Cl | > 32 µg/mL | > 32 µg/mL | > 32 µg/mL | 4 µg/mL | > 32 µg/mL | 8 µg/mL | 16 µg/mL | 8 µg/mL | > 32 µg/mL | > 32 µg/mL | > 32 µg/mL | > 32 µg/mL | > 32 µg/mL | 4 µg/mL | 16 µg/mL | 8 µg/mL | > 32 µg/mL | > 32 µg/mL | > 32 µg/mL | > 32 µg/mL | MIC (Enterococcus faecalis; read-out: MIC): 32 µg/mL; MIC (Escherichia coli [2]; read-out: MIC): 32 µg/mL; MIC (Bacillus cereus): > 32 µg/mL; MIC (Moraxella catarrhalis [3]; read-out: MIC): < 32 µg/mL; MIC (Escherichia coli [7]; read-out: MIC): 32 µg/mL; MIC (Bacillus licheniformis; read-out: MIC): 16 µg/mL; MIC (Escherichia coli [15]): > 32 µg/mL; MIC (Moraxella catarrhalis [16]): > 32 µg/mL; MIC (Staphylococcus aureus [18]): 4 µg/mL; MIC (Citrobacter freundii): > 32 µg/mL; MIC [19]: > 32 µg/mL
C[C@H](CO)[C@H]1CC[C@H]2[C@@H]3[C@H](N)C[C@H]4C[C@@H](NCCCNCCCCN)CC[C@]4(C)[C@H]3CC[C@]12C.Cl.Cl.Cl | > 32 µg/mL | > 32 µg/mL | > 32 µg/mL | 8 µg/mL | > 32 µg/mL | 32 µg/mL | 32 µg/mL | 16 µg/mL | > 32 µg/mL | > 32 µg/mL | > 32 µg/mL | > 32 µg/mL | > 32 µg/mL | 16 µg/mL | 32 µg/mL | 16 µg/mL | > 32 µg/mL | > 32 µg/mL | > 32 µg/mL | > 32 µg/mL | MIC (Enterococcus faecalis; read-out: MIC): < 32 µg/mL; MIC (Escherichia coli [2]): > 32 µg/mL; MIC (Bacillus cereus; read-out: MIC): < 32 µg/mL; MIC (Moraxella catarrhalis [3]): > 32 µg/mL; MIC (Escherichia coli [7]; read-out: MIC): < 32 µg/mL; MIC (Bacillus licheniformis; read-out: MIC): < 32 µg/mL; MIC (Escherichia coli [15]): > 32 µg/mL; MIC (Moraxella catarrhalis [16]; read-out: MIC): < 32 µg/mL; MIC (Staphylococcus aureus [18]): 16 µg/mL; MIC (Citrobacter freundii): > 32 µg/mL; MIC [19]: > 32 µg/mL
C[C@H](CO)[C@H]1CC[C@H]2[C@@H]3CC[C@H]4C[C@H](NCCCNCCCCNCCCN)CC[C@]4(C)[C@H]3CC[C@]12C.Cl.Cl.Cl.Cl | > 32 µg/mL | > 32 µg/mL | > 32 µg/mL | 16 µg/mL | > 32 µg/mL | 16 µg/mL | 8 µg/mL | 16 µg/mL | > 32 µg/mL | > 32 µg/mL | > 32 µg/mL | > 32 µg/mL | > 32 µg/mL | 4 µg/mL | 16 µg/mL | 8 µg/mL | > 32 µg/mL | > 32 µg/mL | > 32 µg/mL | > 32 µg/mL | MIC (Enterococcus faecalis; read-out: MIC): < 32 µg/mL; MIC (Escherichia coli [2]; read-out: MIC): < 32 µg/mL; MIC (Bacillus cereus; read-out: MIC): < 32 µg/mL; MIC (Moraxella catarrhalis [3]; read-out: MIC): < 32 µg/mL; MIC (Escherichia coli [7]): > 32 µg/mL; MIC (Bacillus licheniformis; read-out: MIC): 32 µg/mL; MIC (Escherichia coli [15]; read-out: MIC): < 32 µg/mL; MIC (Moraxella catarrhalis [16]; read-out: MIC): < 32 µg/mL; MIC (Staphylococcus aureus [18]): 4 µg/mL; MIC (Citrobacter freundii): > 32 µg/mL; MIC [19]: > 32 µg/mL
C[C@H](CO)[C@H]1CC[C@H]2[C@@H]3CC[C@H]4C[C@@H](NCCCNCCCCN)CC[C@]4(C)[C@H]3CC[C@]12C.Cl.Cl.Cl | > 32 µg/mL | > 32 µg/mL | > 32 µg/mL | 32 µg/mL | > 32 µg/mL | 16 µg/mL | 16 µg/mL | 16 µg/mL | > 32 µg/mL | > 32 µg/mL | > 32 µg/mL | > 32 µg/mL | > 32 µg/mL | 8 µg/mL | 16 µg/mL | 8 µg/mL | > 32 µg/mL | > 32 µg/mL | > 32 µg/mL | > 32 µg/mL | MIC (Enterococcus faecalis): > 32 µg/mL; MIC (Escherichia coli [2]; read-out: MIC): < 32 µg/mL; MIC (Bacillus cereus): > 32 µg/mL; MIC (Moraxella catarrhalis [3]; read-out: MIC): 32 µg/mL; MIC (Escherichia coli [7]; read-out: MIC): < 32 µg/mL; MIC (Bacillus licheniformis): > 32 µg/mL; MIC (Escherichia coli [15]): > 32 µg/mL; MIC (Moraxella catarrhalis [16]; read-out: MIC): 32 µg/mL; MIC (Staphylococcus aureus [18]): 8 µg/mL; MIC (Citrobacter freundii): > 32 µg/mL; MIC [19]: > 32 µg/mL
